Measurements: patent publication US20100184699A1, “Peptide Derived From Prostate-Related Protein As Cancer Vaccine Candidate For Prostate Cancer Patient Who Is Positive For Hla-A3 Super-Type Allele Molecule” (priority 2005, published 2010)

Test system: peptide-specific IgG in plasma of prostate cancer patients and healthy donors
Assay: Detection of peptide-specific IgG in plasma by ELISA
Assay type: binding, human
Settings: for IgG reactive to peptide in plasma: 1:100-diluted plasma
[1] = Prostate cancer patient 12, A11
[2] = Prostate cancer patient 17, A33
[3] = Prostate cancer patient 19, A33
[4] = Prostate cancer patient 20, A33
[5] = Prostate cancer patient 14, A33

Substance: FQRLGIASGR (PSMA 525-534) [PSMA-derived peptide]
- IgG reactive to peptide in plasma, Total (positive/tested) (Healthy donors): 0/9
- IgG reactive to peptide in plasma (Prostate cancer patient 2, A31): + (IgG reactive to a corresponding peptide was judged to be positive when a difference of the optical density (OD) in a 1:100-diluted plasma was more than 100)
- IgG reactive to peptide in plasma (Prostate cancer patient 4, A31): + (IgG reactive to a corresponding peptide was judged to be positive when a difference of the optical density (OD) in a 1:100-diluted plasma was more than 100)
- IgG reactive to peptide in plasma (Prostate cancer patient 5, A31): + (IgG reactive to a corresponding peptide was judged to be positive when a difference of the optical density (OD) in a 1:100-diluted plasma was more than 100)
- IgG reactive to peptide in plasma (Prostate cancer patient 6, A31): + (IgG reactive to a corresponding peptide was judged to be positive when a difference of the optical density (OD) in a 1:100-diluted plasma was more than 100)
- IgG reactive to peptide in plasma (Prostate cancer patient 8, A11): + (IgG reactive to a corresponding peptide was judged to be positive when a difference of the optical density (OD) in a 1:100-diluted plasma was more than 100)
- IgG reactive to peptide in plasma (Prostate cancer patient 9, A11): + (IgG reactive to a corresponding peptide was judged to be positive when a difference of the optical density (OD) in a 1:100-diluted plasma was more than 100)
- IgG reactive to peptide in plasma [1]: + (IgG reactive to a corresponding peptide was judged to be positive when a difference of the optical density (OD) in a 1:100-diluted plasma was more than 100)
- IgG reactive to peptide in plasma (Prostate cancer patient 16, A33): + (IgG reactive to a corresponding peptide was judged to be positive when a difference of the optical density (OD) in a 1:100-diluted plasma was more than 100)
- IgG reactive to peptide in plasma [2]: + (IgG reactive to a corresponding peptide was judged to be positive when a difference of the optical density (OD) in a 1:100-diluted plasma was more than 100)
- IgG reactive to peptide in plasma [3]: + (IgG reactive to a corresponding peptide was judged to be positive when a difference of the optical density (OD) in a 1:100-diluted plasma was more than 100)
- IgG reactive to peptide in plasma [4]: + (IgG reactive to a corresponding peptide was judged to be positive when a difference of the optical density (OD) in a 1:100-diluted plasma was more than 100)
- IgG reactive to peptide in plasma, Total (positive/tested) (Prostate cancer patients): 11/20

Substance: HYELGEYIR (PAP 78-86) [PAP-derived peptide]
- IgG reactive to peptide in plasma (Healthy donor 3, A31): + (IgG reactive to a corresponding peptide was judged to be positive when a difference of the optical density (OD) in a 1:100-diluted plasma was more than 100)
- IgG reactive to peptide in plasma, Total (positive/tested) (Healthy donors): 1/9
- IgG reactive to peptide in plasma [5]: + (IgG reactive to a corresponding peptide was judged to be positive when a difference of the optical density (OD) in a 1:100-diluted plasma was more than 100)
- IgG reactive to peptide in plasma, Total (positive/tested) (Prostate cancer patients): 1/20

Substance: PSMA 370-378 (RYVILGGHR; PSMA 370-378)
- IgG reactive to peptide in plasma, Total (positive/tested) (Healthy donors): 0/9
- IgG reactive to peptide in plasma (Prostate cancer patient 5, A31): + (IgG reactive to a corresponding peptide was judged to be positive when a difference of the optical density (OD) in a 1:100-diluted plasma was more than 100)
- IgG reactive to peptide in plasma [4]: + (IgG reactive to a corresponding peptide was judged to be positive when a difference of the optical density (OD) in a 1:100-diluted plasma was more than 100)
- IgG reactive to peptide in plasma, Total (positive/tested) (Prostate cancer patients): 2/20

Substance: PSMA 247-265 (NLPGGGVQRGNILNLNGAG; UniProt Q04609 247-265, looked up, fragment)
- IgG reactive to peptide in plasma, Total (positive/tested) (Healthy donors): 0/9
- IgG reactive to peptide in plasma (Prostate cancer patient 6, A31): + (IgG reactive to a corresponding peptide was judged to be positive when a difference of the optical density (OD) in a 1:100-diluted plasma was more than 100)
- IgG reactive to peptide in plasma (Prostate cancer patient 8, A11): + (IgG reactive to a corresponding peptide was judged to be positive when a difference of the optical density (OD) in a 1:100-diluted plasma was more than 100)
- IgG reactive to peptide in plasma (Prostate cancer patient 9, A11): + (IgG reactive to a corresponding peptide was judged to be positive when a difference of the optical density (OD) in a 1:100-diluted plasma was more than 100)
- IgG reactive to peptide in plasma [1]: + (IgG reactive to a corresponding peptide was judged to be positive when a difference of the optical density (OD) in a 1:100-diluted plasma was more than 100)
- IgG reactive to peptide in plasma [4]: + (IgG reactive to a corresponding peptide was judged to be positive when a difference of the optical density (OD) in a 1:100-diluted plasma was more than 100)
- IgG reactive to peptide in plasma, Total (positive/tested) (Prostate cancer patients): 6/20

Substance: SYKHEQVYIR (PAP 96-105) [PAP-derived peptide]
- IgG reactive to peptide in plasma, Total (positive/tested) (Healthy donors): 1/9
- IgG reactive to peptide in plasma [5]: + (IgG reactive to a corresponding peptide was judged to be positive when a difference of the optical density (OD) in a 1:100-diluted plasma was more than 100)
- IgG reactive to peptide in plasma, Total (positive/tested) (Prostate cancer patients): 1/20

Substance: PSMA 456-463 (IEGNYTLR; UniProt Q04609 456-463, looked up, fragment)
- IgG reactive to peptide in plasma, Total (positive/tested) (Healthy donors): 0/9
- IgG reactive to peptide in plasma (Prostate cancer patient 4, A31): + (IgG reactive to a corresponding peptide was judged to be positive when a difference of the optical density (OD) in a 1:100-diluted plasma was more than 100)
- IgG reactive to peptide in plasma (Prostate cancer patient 5, A31): + (IgG reactive to a corresponding peptide was judged to be positive when a difference of the optical density (OD) in a 1:100-diluted plasma was more than 100)
- IgG reactive to peptide in plasma (Prostate cancer patient 6, A31): + (IgG reactive to a corresponding peptide was judged to be positive when a difference of the optical density (OD) in a 1:100-diluted plasma was more than 100)
- IgG reactive to peptide in plasma (Prostate cancer patient 9, A11): + (IgG reactive to a corresponding peptide was judged to be positive when a difference of the optical density (OD) in a 1:100-diluted plasma was more than 100)
- IgG reactive to peptide in plasma [1]: + (IgG reactive to a corresponding peptide was judged to be positive when a difference of the optical density (OD) in a 1:100-diluted plasma was more than 100)
- IgG reactive to peptide in plasma [5]: + (IgG reactive to a corresponding peptide was judged to be positive when a difference of the optical density (OD) in a 1:100-diluted plasma was more than 100)
- IgG reactive to peptide in plasma [2]: + (IgG reactive to a corresponding peptide was judged to be positive when a difference of the optical density (OD) in a 1:100-diluted plasma was more than 100)
- IgG reactive to peptide in plasma [3]: + (IgG reactive to a corresponding peptide was judged to be positive when a difference of the optical density (OD) in a 1:100-diluted plasma was more than 100)
- IgG reactive to peptide in plasma [4]: + (IgG reactive to a corresponding peptide was judged to be positive when a difference of the optical density (OD) in a 1:100-diluted plasma was more than 100)
- IgG reactive to peptide in plasma, Total (positive/tested) (Prostate cancer patients): 9/20

Substance: EYFVEMYYR (PAP 324-332) [PAP-derived peptide]
- IgG reactive to peptide in plasma, Total (positive/tested) (Healthy donors): 0/9
- IgG reactive to peptide in plasma [5]: + (IgG reactive to a corresponding peptide was judged to be positive when a difference of the optical density (OD) in a 1:100-diluted plasma was more than 100)
- IgG reactive to peptide in plasma, Total (positive/tested) (Prostate cancer patients): 1/20

Substance: PSMA 590-698
- IgG reactive to peptide in plasma, Total (positive/tested) (Healthy donors): 0/9
- IgG reactive to peptide in plasma (Prostate cancer patient 4, A31): + (IgG reactive to a corresponding peptide was judged to be positive when a difference of the optical density (OD) in a 1:100-diluted plasma was more than 100)
- IgG reactive to peptide in plasma (Prostate cancer patient 5, A31): + (IgG reactive to a corresponding peptide was judged to be positive when a difference of the optical density (OD) in a 1:100-diluted plasma was more than 100)
- IgG reactive to peptide in plasma (Prostate cancer patient 6, A31): + (IgG reactive to a corresponding peptide was judged to be positive when a difference of the optical density (OD) in a 1:100-diluted plasma was more than 100)
- IgG reactive to peptide in plasma (Prostate cancer patient 8, A11): + (IgG reactive to a corresponding peptide was judged to be positive when a difference of the optical density (OD) in a 1:100-diluted plasma was more than 100)
- IgG reactive to peptide in plasma (Prostate cancer patient 9, A11): + (IgG reactive to a corresponding peptide was judged to be positive when a difference of the optical density (OD) in a 1:100-diluted plasma was more than 100)
- IgG reactive to peptide in plasma [1]: + (IgG reactive to a corresponding peptide was judged to be positive when a difference of the optical density (OD) in a 1:100-diluted plasma was more than 100)
- IgG reactive to peptide in plasma (Prostate cancer patient 13, A11): + (IgG reactive to a corresponding peptide was judged to be positive when a difference of the optical density (OD) in a 1:100-diluted plasma was more than 100)
- IgG reactive to peptide in plasma [5]: + (IgG reactive to a corresponding peptide was judged to be positive when a difference of the optical density (OD) in a 1:100-diluted plasma was more than 100)
- IgG reactive to peptide in plasma [2]: + (IgG reactive to a corresponding peptide was judged to be positive when a difference of the optical density (OD) in a 1:100-diluted plasma was more than 100)
- IgG reactive to peptide in plasma [3]: + (IgG reactive to a corresponding peptide was judged to be positive when a difference of the optical density (OD) in a 1:100-diluted plasma was more than 100)
- IgG reactive to peptide in plasma [4]: + (IgG reactive to a corresponding peptide was judged to be positive when a difference of the optical density (OD) in a 1:100-diluted plasma was more than 100)
- IgG reactive to peptide in plasma, Total (positive/tested) (Prostate cancer patients): 11/20

Substance: DLVYVNYAR (PSMA 173-181) [PSMA-derived peptide]
- IgG reactive to peptide in plasma, Total (positive/tested) (Healthy donors): 0/9
- IgG reactive to peptide in plasma (Prostate cancer patient 4, A31): + (IgG reactive to a corresponding peptide was judged to be positive when a difference of the optical density (OD) in a 1:100-diluted plasma was more than 100)
- IgG reactive to peptide in plasma (Prostate cancer patient 5, A31): + (IgG reactive to a corresponding peptide was judged to be positive when a difference of the optical density (OD) in a 1:100-diluted plasma was more than 100)
- IgG reactive to peptide in plasma (Prostate cancer patient 6, A31): + (IgG reactive to a corresponding peptide was judged to be positive when a difference of the optical density (OD) in a 1:100-diluted plasma was more than 100)
- IgG reactive to peptide in plasma [1]: + (IgG reactive to a corresponding peptide was judged to be positive when a difference of the optical density (OD) in a 1:100-diluted plasma was more than 100)
- IgG reactive to peptide in plasma [4]: + (IgG reactive to a corresponding peptide was judged to be positive when a difference of the optical density (OD) in a 1:100-diluted plasma was more than 100)
- IgG reactive to peptide in plasma, Total (positive/tested) (Prostate cancer patients): 5/20
